For one series, the target named is JAK1 (Homo sapiens, UniProt P23458). The series is described as follows: Kinase activity test on JAK1 (Caliper EZ Reader conversion rate).
The target of the next series is T1, JAK3 (Homo sapiens, UniProt P52333).
T1 sequence (P52333 1-1124): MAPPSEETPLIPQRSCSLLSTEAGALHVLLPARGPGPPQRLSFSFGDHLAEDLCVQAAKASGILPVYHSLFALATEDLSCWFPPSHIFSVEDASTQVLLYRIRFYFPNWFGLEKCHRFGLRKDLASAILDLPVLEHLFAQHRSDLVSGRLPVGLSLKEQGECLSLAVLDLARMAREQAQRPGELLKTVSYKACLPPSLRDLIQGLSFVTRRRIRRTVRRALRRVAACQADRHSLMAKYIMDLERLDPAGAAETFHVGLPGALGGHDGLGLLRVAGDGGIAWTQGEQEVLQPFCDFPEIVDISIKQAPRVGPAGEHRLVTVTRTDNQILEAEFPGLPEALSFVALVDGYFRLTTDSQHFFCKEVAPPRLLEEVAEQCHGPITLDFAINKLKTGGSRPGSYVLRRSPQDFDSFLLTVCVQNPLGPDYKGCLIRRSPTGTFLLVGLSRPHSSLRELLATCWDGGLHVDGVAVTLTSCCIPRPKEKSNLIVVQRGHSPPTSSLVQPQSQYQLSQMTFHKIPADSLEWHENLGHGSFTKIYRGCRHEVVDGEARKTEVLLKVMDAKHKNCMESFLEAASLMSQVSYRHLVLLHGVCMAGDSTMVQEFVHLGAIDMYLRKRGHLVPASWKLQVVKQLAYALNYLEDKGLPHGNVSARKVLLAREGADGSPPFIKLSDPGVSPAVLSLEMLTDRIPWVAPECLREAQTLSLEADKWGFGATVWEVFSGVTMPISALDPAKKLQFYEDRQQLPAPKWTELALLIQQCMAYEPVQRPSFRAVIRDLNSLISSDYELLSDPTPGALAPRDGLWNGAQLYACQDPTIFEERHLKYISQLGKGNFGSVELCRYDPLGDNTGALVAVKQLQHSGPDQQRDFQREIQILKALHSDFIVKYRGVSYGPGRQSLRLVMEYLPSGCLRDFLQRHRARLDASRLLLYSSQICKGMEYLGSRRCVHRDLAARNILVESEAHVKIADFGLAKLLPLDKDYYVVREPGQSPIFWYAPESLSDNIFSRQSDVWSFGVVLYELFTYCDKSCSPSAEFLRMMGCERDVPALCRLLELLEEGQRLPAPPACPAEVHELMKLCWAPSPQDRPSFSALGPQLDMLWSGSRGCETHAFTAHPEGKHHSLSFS
The series can be described thus: Kinase activity test on JAK3 (Caliper EZ Reader conversion rate).

In a further series the test system is HEL92.1.7. The series can be described thus: HEL92.1.7 cell proliferation experiment (Cell Titer-Glo). The series is classed as cell-based. The note with it: Homo sapiens, HEL 92.1.7; HEL92.1.7 cells, 72 hours.
In the next series the target is JAK2 (Homo sapiens, UniProt O60674). The series can be described thus: Kinase activity test on JAK2 (Caliper EZ Reader conversion rate). Particulars: for JAK1/JAK2 / JAK3/JAK2: ratio of IC50 values; for JAK1/JAK2: selectivity for JAK2 over JAK1; for JAK3/JAK2: selectivity for JAK2 over JAK3.
The next series has as its system TF-1. The series is described as follows: TF-1 cell proliferation experiment (CellTiter Glo). The note with it: Homo sapiens; TF-1 cells, 72 hours; read-out: TF-1 (μM), proliferation inhibition. The series is classed as cell-based.
Series [1] in a line: Pharmacokinetic test in SD rats, intragastric administration. The series is classed as in vivo. Particulars: rat, po, single intragastric administration, 25 mg/kg, plasma; for Cmax: read-out: Blood concentration Cmax; for AUC(0-t): read-out: Curve area AUClast; for half-life: read-out: Half life t1/2 (converted); for Tmax: read-out: Time to peak Tmax. The method, then: SD rats were used as the test animals.
Standard curve and preparation and processing of quality control samples:
Stock solution was diluted with 50% acetonitrile/water solution to obtain standard working solutions of 0.04, 0.10, 0.20, 0.40, 1.00, 2.00, 4.00 μg/mL, and quality control working solutions of 0.10, 1.00, 3.00 μg/mL. 2.50 μL of standard curve working solutions and quality control working solutions were added to 47.5 μL of blank rat plasma, respectively, to obtain standard curve solutions having analyte concentrations of 2.00, 5.00, 10.00, 20.00, 50.00, 100.00, 200.00 ng/mL and quality control samples having concentrations of 5.00, 50.00, and 150.00 ng/mL. 200 μL of acetonitrile (containing 5 ng/mL of the internal standard loratadine) was added. After vortexing for 3 minutes, the solutions were centrifuged at 15000 rpm at 4° C. for 15 minutes. 100 μL of the supernatant was taken for LC-MS/MS analysis. WinNonlin® 8.0 was used to calculate the experimental results.

Series [2] is described as follows: Acute toxicity test, single oral administration to ICR mice (MTD). The series is classed as in vivo. Particulars: ICR, mouse, in vivo, po, read-out: MTD (maximum tolerated dose).

Sequence of JAK2 (O60674 whole entry): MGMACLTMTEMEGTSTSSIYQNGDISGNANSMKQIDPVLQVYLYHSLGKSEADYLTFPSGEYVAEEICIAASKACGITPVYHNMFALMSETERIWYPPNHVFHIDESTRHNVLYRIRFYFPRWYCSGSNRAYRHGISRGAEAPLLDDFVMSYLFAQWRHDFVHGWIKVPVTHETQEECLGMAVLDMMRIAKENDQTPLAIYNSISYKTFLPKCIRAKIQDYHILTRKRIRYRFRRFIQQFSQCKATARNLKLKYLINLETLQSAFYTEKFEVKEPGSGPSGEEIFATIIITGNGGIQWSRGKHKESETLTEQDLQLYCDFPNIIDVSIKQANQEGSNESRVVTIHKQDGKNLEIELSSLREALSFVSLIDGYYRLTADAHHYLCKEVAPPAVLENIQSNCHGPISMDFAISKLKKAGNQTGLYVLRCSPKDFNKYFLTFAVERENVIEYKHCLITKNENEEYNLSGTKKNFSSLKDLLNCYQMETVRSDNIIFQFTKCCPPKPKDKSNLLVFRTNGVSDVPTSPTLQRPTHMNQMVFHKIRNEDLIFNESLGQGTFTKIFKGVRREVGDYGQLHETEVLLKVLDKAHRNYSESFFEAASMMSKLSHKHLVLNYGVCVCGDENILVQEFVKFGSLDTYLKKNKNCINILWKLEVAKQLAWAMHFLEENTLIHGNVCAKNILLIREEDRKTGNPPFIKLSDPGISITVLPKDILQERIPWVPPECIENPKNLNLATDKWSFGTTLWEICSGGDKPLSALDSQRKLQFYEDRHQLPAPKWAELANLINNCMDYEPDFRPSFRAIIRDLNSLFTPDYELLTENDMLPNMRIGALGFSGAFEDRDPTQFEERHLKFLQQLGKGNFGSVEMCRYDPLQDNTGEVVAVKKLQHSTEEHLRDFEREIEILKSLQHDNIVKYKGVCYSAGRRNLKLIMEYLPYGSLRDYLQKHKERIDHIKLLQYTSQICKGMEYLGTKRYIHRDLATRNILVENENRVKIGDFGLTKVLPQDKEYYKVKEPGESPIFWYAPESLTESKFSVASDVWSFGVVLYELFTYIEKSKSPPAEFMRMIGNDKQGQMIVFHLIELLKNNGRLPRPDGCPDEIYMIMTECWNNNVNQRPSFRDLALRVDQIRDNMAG
Sequence of JAK1 (P23458 whole entry): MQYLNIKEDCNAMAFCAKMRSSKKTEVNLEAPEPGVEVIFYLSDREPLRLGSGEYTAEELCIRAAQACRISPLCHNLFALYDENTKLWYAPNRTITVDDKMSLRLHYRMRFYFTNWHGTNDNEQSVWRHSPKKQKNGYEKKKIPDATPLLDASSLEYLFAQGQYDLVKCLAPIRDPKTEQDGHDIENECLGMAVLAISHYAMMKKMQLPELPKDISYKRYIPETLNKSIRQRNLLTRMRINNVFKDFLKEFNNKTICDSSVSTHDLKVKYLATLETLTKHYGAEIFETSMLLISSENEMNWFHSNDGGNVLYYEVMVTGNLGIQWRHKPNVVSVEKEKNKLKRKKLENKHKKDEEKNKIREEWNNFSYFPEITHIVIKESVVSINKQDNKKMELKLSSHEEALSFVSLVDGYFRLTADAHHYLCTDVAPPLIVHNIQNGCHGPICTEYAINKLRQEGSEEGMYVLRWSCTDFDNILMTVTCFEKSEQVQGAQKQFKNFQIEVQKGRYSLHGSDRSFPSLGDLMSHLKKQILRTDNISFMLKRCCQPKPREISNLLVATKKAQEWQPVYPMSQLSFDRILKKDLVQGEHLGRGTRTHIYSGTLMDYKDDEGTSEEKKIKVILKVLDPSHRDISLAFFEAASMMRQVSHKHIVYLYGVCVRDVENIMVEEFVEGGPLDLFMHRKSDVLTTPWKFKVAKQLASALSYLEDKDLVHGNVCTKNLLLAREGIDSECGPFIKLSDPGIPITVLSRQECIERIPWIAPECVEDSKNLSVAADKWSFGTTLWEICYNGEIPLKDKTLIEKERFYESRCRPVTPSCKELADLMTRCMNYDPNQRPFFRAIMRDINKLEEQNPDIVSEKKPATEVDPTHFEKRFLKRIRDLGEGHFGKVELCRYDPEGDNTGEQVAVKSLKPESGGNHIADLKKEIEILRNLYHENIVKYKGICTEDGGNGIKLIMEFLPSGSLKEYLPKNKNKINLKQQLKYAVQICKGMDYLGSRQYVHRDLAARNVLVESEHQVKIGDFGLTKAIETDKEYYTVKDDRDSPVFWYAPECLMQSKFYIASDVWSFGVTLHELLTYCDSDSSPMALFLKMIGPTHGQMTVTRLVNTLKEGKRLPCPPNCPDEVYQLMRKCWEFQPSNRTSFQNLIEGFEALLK

In the case of `CC(C)(C)NS(=O)(=O)c1cccc(N2CCc3cnc(Nc4ccc(N5CCNCC5)cc4)nc32)c1` [Compound I-16], the IC50 at JAK1 was determined as 203 nM; against JAK3 it was 1390 nM; in the series with HEL92.1.7 it was 0.21 µM; against JAK2 it was 2 nM; in the series with TF-1, 0.15 µM. For the same compound, on JAK2, the JAK1/JAK2 stood at 101. Further, at JAK2, the JAK3/JAK2 is on record as 695.
Regarding `CCN1CCN(Cc2ccc(Nc3ncc4c(n3)N(c3cccc(S(=O)(=O)NC(C)(C)C)c3)CC4)cc2)CC1` [Compound I-8], the IC50 against JAK1 is 151 nM; against JAK3, 1000 nM; in the series on HEL92.1.7, 0.33 µM; at JAK2, 1.2 nM; with TF-1, 0.23 µM. Further, the JAK1/JAK2 on JAK2 is listed as 126. Moreover, the JAK3/JAK2 at JAK2 was determined as 833.
For `Cc1cnc(Nc2ccc(OCCN3CCCC3)cc2)nc1Nc1cccc(S(=O)(=O)NC(C)(C)C)c1` [Fedratinib, reference compound], in series [1], the Cmax came to 579 ng/mL, the AUC(0-t) was determined as 559 ng·h/mL, the half-life was 240 min and the Tmax came to 1.5 h. In the series with HEL92.1.7, the IC50 is 0.58 µM. Also, the maximal tolerated dose (MTD) at 6 days in series [2] came out at 250 mg/kg. Besides, in the series with TF-1, the IC50 was found to be 1.57 µM.
Regarding `CC(C)(C)NS(=O)(=O)c1cccc(N2CCc3cnc(Nc4ccc(N5CCCCC5)cc4)nc32)c1` [Compound I-18], the IC50 against JAK1 was found to be 109 nM; against JAK3, 1110 nM; with HEL92.1.7, 0.2 µM; at JAK2 it was 0.7 nM; with TF-1 it was 0.15 µM. Further, the JAK1/JAK2 at JAK2 is given as 156. The JAK3/JAK2 at JAK2 is listed as 1588.
In the case of `CC(C)(C)NS(=O)(=O)c1cccc(N2CCc3cnc(Nc4ccc(CN5CCCC5)cc4)nc32)c1` [Compound I-22], the IC50 turned out to be 105 nM against JAK1; 873 nM at JAK3; 0.24 µM in the series on HEL92.1.7; 0.6 nM against JAK2; 0.22 µM in the series with TF-1. The JAK1/JAK2 on JAK2 is listed as 175. For the same compound, at JAK2, the JAK3/JAK2 is 1455.
Compound `CC(C)(C)NS(=O)(=O)c1cccc(N2CCc3cnc(Nc4ccc(OCCN5CCCCC5)cc4)nc32)c1` [Compound I-5] showed an IC50 against JAK1 of 99 nM. At JAK3, this compound came in with an IC50 of 1230 nM. Further, in series [1], the Cmax was 1120 ng/mL, the AUC(0-t) turned out to be 812 ng·h/mL, the half-life was 366 min and the Tmax was 1.5 h. This compound had an IC50 in the series on HEL92.1.7 of 0.18 µM. At JAK2, the IC50 was determined as 1.1 nM, the JAK1/JAK2 is on record as 90 and the JAK3/JAK2 came out at 1118. In addition, the IC50 with TF-1 is 0.22 µM.
For `CN1CCN(Cc2ccc(Nc3ncc4c(n3)N(c3cccc(S(=O)(=O)NC(C)(C)C)c3)CC4)cc2)CC1` [Compound I-12], the IC50 on JAK1 is 98 nM; against JAK3 it was 879 nM; in the series with HEL92.1.7, 0.22 µM; against JAK2, 0.7 nM; with TF-1, 0.2 µM. Also, the JAK1/JAK2 at JAK2 came out at 140. Besides, the JAK3/JAK2 at JAK2 came out at 1256.
`CN1CCC(c2ccc(Nc3ncc4c(n3)N(c3cccc(S(=O)(=O)NC(C)(C)C)c3)CC4)cc2)CC1` [Compound I-21]: the IC50 at JAK1 amounted to 101 nM; on JAK3, 988 nM; with HEL92.1.7 it was 0.22 µM; at JAK2, 0.8 nM; in the series with TF-1 it was 0.15 µM. The JAK1/JAK2 on JAK2 was determined as 126. In addition, at JAK2, the JAK3/JAK2 was found to be 1235.
Regarding `CC(C)(C)NS(=O)(=O)c1cccc(N2CCc3cnc(Nc4ccc(N5CCOCC5)cc4)nc32)c1` [Compound I-17], the IC50 at JAK1 was found to be 221 nM; on JAK3, 1560 nM; with HEL92.1.7 it was 0.25 µM; on JAK2, 2.2 nM; in the series on TF-1, 0.14 µM. The JAK1/JAK2 on JAK2 was 100. Besides, the JAK3/JAK2 on JAK2 came out at 709.
For `CC(C)(C)NS(=O)(=O)c1cccc(N2CCc3cnc(Nc4ccc(OCCN5CCSCC5)cc4)nc32)c1` [Compound I-14], at JAK1, the IC50 was 102 nM. At JAK3, this compound displayed an IC50 of 998 nM. Further, in series [1], the Cmax was 1230 ng/mL, the AUC(0-t) amounted to 900 ng·h/mL, the half-life is 414 min and the Tmax came out at 1.5 h. Besides, the IC50 in the series on HEL92.1.7 is 0.43 µM. Also, at JAK2, the IC50 came out at 1.1 nM, the JAK1/JAK2 is recorded as 93 and the JAK3/JAK2 is 907. Also, in the series with TF-1, the IC50 worked out at 0.28 µM.
As to `CC(C)(C)NS(=O)(=O)c1cccc(N2CCc3cnc(Nc4ccc(CN5CCS(=O)(=O)CC5)cc4)nc32)c1` [Compound I-9], the IC50 amounted to 191 nM at JAK1; 1330 nM against JAK3; 0.17 µM with HEL92.1.7; 1.7 nM against JAK2; 0.21 µM in the series on TF-1. Besides, on JAK2, the JAK1/JAK2 was found to be 112. The JAK3/JAK2 on JAK2 is given as 782.
Turning to `CC(C)(C)NS(=O)(=O)c1cccc(N2CCc3cnc(Nc4ccc(CN5CCOCC5)cc4)nc32)c1` [Compound I-11], the IC50 is 105 nM against JAK1; 980 nM against JAK3; 0.24 µM with HEL92.1.7; 0.8 nM against JAK2; 0.17 µM in the series with TF-1. For the same compound, the JAK1/JAK2 on JAK2 came to 131. Further, on JAK2, the JAK3/JAK2 came out at 1225.
For the compound `CC(C)(C)NS(=O)(=O)c1cccc(N2CCc3cnc(Nc4ccc(CC5CCOCC5)cc4)nc32)c1` [Compound I-10], the IC50 against JAK1 came out at 100 nM; on JAK3, 987 nM; with HEL92.1.7, 0.2 µM; at JAK2, 0.5 nM; in the series on TF-1, 0.19 µM. In addition, the JAK1/JAK2 on JAK2 turned out to be 200. For the same compound, the JAK3/JAK2 at JAK2 is given as 1974.
For the compound `CN1CCC(Cc2ccc(Nc3ncc4c(n3)N(c3cccc(S(=O)(=O)NC(C)(C)C)c3)CC4)cc2)CC1` [Compound I-7], the IC50 came to 103 nM on JAK1; 900 nM against JAK3; 0.25 µM in the series on HEL92.1.7; 0.9 nM on JAK2; 0.19 µM in the series with TF-1. Moreover, on JAK2, the JAK1/JAK2 is 114. In addition, the JAK3/JAK2 at JAK2 was 1000.
On to `CC(C)(C)NS(=O)(=O)c1cccc(N2CCc3cnc(Nc4ccc(OCCN5CCOCC5)cc4)nc32)c1` [Compound I-3], for which the IC50 against JAK1 turned out to be 100 nM. The IC50 at JAK3 came out at 877 nM. For the same compound, in series [1], the Cmax worked out at 1230 ng/mL, the AUC(0-t) was determined as 903 ng·h/mL, the half-life is 354 min and the time of peak concentration (Tmax) came to 1.5 h. The compound also returned an IC50 in the series on HEL92.1.7 of 0.19 µM. At JAK2, the IC50 is 1 nM, the JAK1/JAK2 was 100 and the JAK3/JAK2 is on record as 877. For the same compound, the IC50 in the series on TF-1 was 0.18 µM.
Regarding `CC(C)(C)NS(=O)(=O)c1cccc(N2CCc3cnc(Nc4ccc(OCCN5CCS(=O)(=O)CC5)cc4)nc32)c1` [Compound I-6], the IC50 was 97 nM against JAK1; 890 nM against JAK3; 0.35 µM in the series with HEL92.1.7; 0.75 nM on JAK2; 0.15 µM with TF-1. Moreover, the JAK1/JAK2 at JAK2 worked out at 129. Further, at JAK2, the JAK3/JAK2 came to 1187.
